Measurements from BigSolDB 2.1.

CS(=O)(=O)OCCCCOS(C)(=O)=O
solubility (mole fraction)
Settings | 278.15 K | 283.15 K | 288.15 K | 293.15 K | 298.15 K | 303.15 K | 308.15 K | 313.15 K | 318.15 K | 323.15 K
in 2-butoxyethanol | 0.000161 | 0.000208 | 0.000261 | 0.000332 | 0.000417 | 0.000522 | 0.00066 | 0.000811 | 0.00102 | 0.00124
in 2-ethoxyethanol | 0.000166 | 0.000255 | 0.000389 | 0.000587 | 0.000857 | 0.00128 | 0.00179 | 0.00259 | 0.00367 | 0.00511
in 2-methoxyethanol | 0.000446 | 0.000675 | 0.00104 | 0.00149 | 0.0022 | 0.00311 | 0.00438 | 0.00609 | 0.0085 | 0.0118
in 2-propoxyethanol | 0.000168 | 0.000221 | 0.00031 | 0.000398 | 0.00053 | 0.000693 | 0.000905 | 0.00118 | 0.00155 | 0.00196
in DMF | 0.0116 | 0.0151 | 0.0194 | 0.0248 | 0.0317 | 0.0397 | 0.0495 | 0.0611 | 0.076 | 0.0929
in DMSO | – | – | – | – | 0.0367 | 0.0459 | 0.0567 | 0.0695 | 0.0851 | 0.103
in NMP | 0.0172 | 0.0215 | 0.0266 | 0.0328 | 0.0401 | 0.0487 | 0.059 | 0.0713 | 0.0853 | 0.102
in ethanol | 1.55e-05 | 2.49e-05 | 3.95e-05 | 6.08e-05 | 9.34e-05 | 0.000142 | 0.000211 | 0.000315 | 0.00046 | 0.000655
in ethyl acetate | 0.000385 | 0.000575 | 0.00081 | 0.00112 | 0.0016 | 0.00209 | 0.00287 | 0.0038 | 0.00525 | 0.00705
in methanol | 4.32e-05 | 6.97e-05 | 0.000107 | 0.000167 | 0.000251 | 0.000379 | 0.000555 | 0.000813 | 0.00119 | 0.00169
in methyl acetate | 0.000892 | 0.00109 | 0.00179 | 0.00248 | 0.00323 | 0.0045 | 0.00592 | 0.008 | 0.0107 | 0.0145
in n-butanol | 6.8e-06 | 1.09e-05 | 1.72e-05 | 2.66e-05 | 4.22e-05 | 6.35e-05 | 9.25e-05 | 0.000135 | 0.000191 | 0.000276
in n-butyl acetate | 0.000209 | 0.000289 | 0.000402 | 0.000549 | 0.000785 | 0.000962 | 0.00122 | 0.00175 | 0.00218 | 0.00281
in n-propanol | 4.5e-06 | 8e-06 | 1.43e-05 | 2.4e-05 | 4.05e-05 | 6.68e-05 | 0.000107 | 0.000173 | 0.000277 | 0.000444
in n-propyl acetate | 0.00016 | 0.000298 | 0.000468 | 0.000649 | 0.00101 | 0.00137 | 0.00195 | 0.00272 | 0.00386 | 0.00531
